Reference: patent US10828275B2, “Selective targeting of procoagulant platelets” (NewSouth Innovations Pty Limited, priority 2014, dated 2020)
Entries after “also recorded” stand apart in the source; their conditions may differ.

Legend:
[1] = test system: agonist stimulated platelets; test: Platelet procoagulant potential, Calibrated Automated Thrombogram; type: cell-based, human; details: 100 mg aspirin daily for 7 days; thrombin and collagen
Protocol: FIG. 5. […] A. Washed human platelets were untreated or stimulated with thrombin (0.1 units/mL) and collagen (5 μg/mL) or the mitochondrial membrane disrupter CCCP (4 μM). Mitochondrial transmembrane potential was measured using the cationic dye, JC-1. The ratio of distribution of JC-1 between the mitochondria (red fluorescence) and cytosol (green fluorescence) reflects mitochondrial transmembrane potential. […] B-C. […] E. Washed human platelets were preincubated with CaCl2 for 15 min and then untreated or stimulated with thrombin (0.1 units/mL) and collagen (5 μg/mL).
FIG. 8. […] Platelets from healthy volunteers were examined before and after 7 days of aspirin ingestion. Washed platelets were activated with thrombin (0.1 units/mL) and collagen (5 μg/mL) and GSAO+/P-selectin+ necrotic platelets measured by flow cytometry (part A) and procoagulant potential assessed using the Calibrated Automated Thrombogram (part B).
Thrombin generation capacity of agonist stimulated platelets was measured using the Calibrated Automated Thrombogram as described (Hemker et al., 2003) using the Fluorskan Ascent (Thermo Scientific). Agonist stimulated platelets were washed in phosphate-buffered saline and resuspended into the donor's own platelet poor plasma at 5×10^4/μL and recombinant tissue factor ([…], Innovin, Dade Behring) was added. Assays were performed in triplicate.

[2] = test system: washed platelets from healthy volunteers; test: Aspirin study: GSAO+/P-selectin+ necrotic platelets ex vivo (flow cytometry); type: cell-based, human; details: 100 mg aspirin daily for 7 days; thrombin and collagen
Protocol: FIG. 8. Aspirin ingestion sensitizes platelets to cyclophilin D inhibition in human subjects. Platelets from healthy volunteers were examined before and after 7 days of aspirin ingestion. Washed platelets were activated with thrombin (0.1 units/mL) and collagen (5 μg/mL) and GSAO+/P-selectin+ necrotic platelets measured by flow cytometry (part A) and procoagulant potential assessed using the Calibrated Automated Thrombogram (part B).
The standard pharmacological means for prevention of cardiovascular events is by inhibiting platelet cyclooxygenase-1 with aspirin, which suppresses platelet activation.
This study was approved by the University of New South Wales Human Research Ethics Advisory Committee (HC132219), conducted according to the Declaration of Helsinki and all volunteers gave written informed consent. Five healthy volunteers aged 25-45 years were recruited. Prior to starting the study, all volunteers abstained from aspirin or non-steroidal anti-inflammatory drugs (NSAIDS), or other anti-platelet therapies for 14 days. Volunteers received 100 mg enteric coated aspirin daily for 7 days. Blood was collected and washed platelets assessed at baseline, day 0, and again at day 7 of treatment.

[3] = test system: platelets of coronary artery disease patients; test: Whole blood platelet necrosis assay in coronary artery disease patients; type: in vivo, human; details: thrombin or thrombin/collagen stimulation
From the text: The whole blood platelet necrosis assay was validated by measuring formation of procoagulant platelets in response to well-known agonist in humans and mice. The assay was able to reproducibly measure platelet propensity to necrosis in healthy human volunteers as well as in patients with ischaemic heart disease within a clinical setting.
Experiments using genetically modified mice indicate that formation of procoagulant platelets is dependent on the cyclophilin D necrosis pathway, but independent of the BclXL apoptosis pathway. In healthy volunteers, the strong platelet agonists, thrombin and collagen, induce formation of procoagulant platelets via a mechanism that is largely independent of protease activated receptors. Patients with coronary artery disease have a heightened procoagulant platelet potential and are sensitised to thrombin and ADP stimulation. The procoagulant platelet potential in these patients is insensitive to aspirin, which targets platelet aggregation, but modified by P2Y12 antagonists.
To examine the effect of CAD on procoagulant platelet potential, non-heparinized bloods from patients with exposure to either aspirin only or no antiplatelet medications within 7 days of the procedure were assayed. […] There were no statistically significant differences between the groups in the absence of agonist stimulation.

Compound: CC(=O)Oc1ccccc1C(=O)O [aspirin]
- change in procoagulant potential of activated platelets [1]: no change
- change in GSAO+/P-selectin+ necrotic potential of activated platelets [2]: no change
- effect on necrotic / procoagulant platelet potential in patients [3]: did not affect; also recorded: insensitive
